Results taken from patent publication US20170239212A1, “[…] AND USE THEREOF AS ANTIVIRAL AGENTS” (priority 2014, published 2017).

Experiments:
[1] = system: cFos; experiment: Induction of cFos in LNCaP cells (western blot); assay type: cell-based, human; details: 2, 5 or 8 hrs treatment
Description: FIGS. 14A-14C show the induction of cFos and phosphorylation of PKC6 at Y311 in LNCaP cells. […] The proteins from the lysates were separated by 10% SDS-PAGE, electroblotted to nitrocellulose membranes and probed with anti-cFos primary and anti-rabbit secondary antibodies, followed by ECL visualization. Data are representative of four independent experiments. […] The cFos signal was normalized to the 3-actin signal to correct for loading and the response induced by 100 nM PMA at 2 hrs was taken as 100%. Data represent the means±SEM of four independent experiments. […] Data represent the means±SEM of three independent experiments.
LNCaP cells treated for 48 hours with the different drugs or with DMSO as control were washed and re-suspended in phosphate buffered saline. Yo-Pro-1 (Invitrogen, Carlsbad, Calif.) was added to a final concentration of 1 μM and the cells were incubated for 20 min at 4° C. in the dark. 7-Aminoactinomycin D (7-AAD) (Invitrogen, Carlsbad, Calif.) was then added at a 5 μg/mL final concentration 10 minutes before analysis by flow cytometry using the FACSCalibur system (Becton Dickinson, Mountain View, Calif.). Data were analyzed with FlowJo 7 (Tree Star Inc., Ashland, Oreg.). The Yo-Pro-1 positive cells were considered apoptotic and were expressed as % of total cells. […]

[2] = system: K-562 human myelocytic leukemia cell line; experiment: Proliferation of K-562 cells; assay type: cell-based; details: maximally effective concentration, 72 hours, vs DMSO control
Description: K562 cells were counted after 3 day treatment with different concentrations of PMA (0.1, 1, 10, 100, 1000 nM), bryostatin 1 (0.1, 1, 10, 100, 1000 nM), the bryologues MERLE 21, 22, or 23 (1, 10, 100, 1000, 5000 nM) or DMSO as control. The number of cells is presented as % of the DMSO-treated control. Data represent the means±SEM of three independent experiments.
K-562 cells, from the Biological Testing Branch, National Cancer Institute, NIH (Frederick, Md.), were grown under usual conditions in RPMI-1640, supplemented with 10% fetal bovine serum. 72 hours after treatment with different drugs or DMSO the cell number was determined using a Beckman particle counter (Beckman Coulter Inc., Fullerton, Calif.).

[3] = system: human osteosarcoma (HOS) cells; experiment: HOS cell viability (CellTiter-Glo, cellular ATP); assay type: cell-based; parameters: unit not given here; details: knock down of cellular ATP
Description: (§1) Specifically, EC50 and CC50 values were determined in parallel using 10 concentrations of compound from 3 fold serial dilutions starting a 5 uM as the highest concentration. Cells and media were added to compounds with a final concentration of DMSO of 1% and incubated at 37° C., 5% CO2 for 24, 48 and 72 hours. EC50 was measured by induced luciferase activity detected by the use of the Steady-Glo® Luciferase reagent (PROMEGA) with an EnVision (Perkin-Elmer) plate reader. CC50 was determined by the dose dependent knock down of cellular ATP detected by the use of CellTiter-Glo® Luminescent Cell Viability reagent (PROMEGA) with an EnVision (Perkin-Elmer) plate reader.

[4] = system: HIV long terminal repeat (LTR) promoter; experiment: HOS LTR stimulation assay (luciferase reporter); assay type: cell-based
Description: In the assay, non T cell derived human osteosarcoma (HOS) cells are transfected with a luciferase reporter under control of an HIV long terminal repeat (LTR) promoter. Compounds that stimulate the HIV LTR promoter will produce luciferase in a dose dependent manner.
as §1
The error bars represent the average and the standard error of the mean of at least three independent experiments.

[5] = system: U937 cells; experiment: Attachment of U937 cells; assay type: cell-based, human; details: 72 hours; for Block of PMA-induced attachment of U937 cells: 10 nM PMA with different concentrations of compound; for Attachment of U937 cells (attached cells as percent of total): compound alone
Description: U937 cells (Sundstrom, C.; Nilsson, K.: Establishment and characterization of a human histiocytic lymphoma cell line (U-937). Int. J. Cancer 1976, 17: 565-577), purchased from ATCC (Manassas, Va.) and cultured in RPMI-1640 medium supplemented with 10% FBS (ATCC, Manassas, Va.), were plated in 35 mm dishes at a density of 2×10^5 living cells/ml and treated with different concentrations of the drugs or DMSO. After 72 hours, the number of cells in the supernatant (non-attached cells) and the number of attached cells (after trypsinization) were counted using a Beckman particle counter (Beckman Coulter Inc., Fullerton, Calif.). The number of attached cells is expressed as percent of total cells (FIGS. 8-10).
U937 cells were treated with PMA (0.1-100 nM), bryostatin 1 (1-1000 nM), the indicated compound (1-1000 nM), 10 nM PMA with different concentrations of bryostatin 1 (1-1000 nM) or 10 nM PMA with different concentrations of indicated compound (1-1000 nM) for 72 hours. The number of attached cells and total cells were counted and the attached cells were graphed as percent of total cells. The bars and error bars represent the average and the standard error of the mean of five independent experiment (FIGS. 8-10).
(§2) U937 cells (Sundstrom and Nilsson, 1976), purchased from ATCC (Manassas, Va.) and cultured in RPMI-1640 medium supplemented with 10% FBS (ATCC, Manassas, Va.), were plated in 35 mm dishes at a density of 1×10^5 living cells/ml and treated with different concentrations of the drugs or DMSO. After 72 hours, the number of cells in the supernatant (non-attached cells) and the number of attached cells (after trypsinization) were counted using a particle counter. The number of attached cells is expressed as percent of total cells.
U937 cells were treated with PMA (0.01-100 nM), bryostatin 1 (0.1-1000 nM), analogue 12 (MERLE 28) (0.1-1000 nM), 10 nM PMA with different concentrations of bryostatin 1 (0.1-1000 nM) or 10 nM PMA with different concentrations of analogue 12 (0.1-1000 nM). The number of attached cells and total cells were counted and the attached cells were graphed as percent of total cells. The bars and error bars represent the average and the standard error of the mean of at least three independent experiments.
as §2
U937 cells were treated with PMA (0.1-100 nM), bryostatin 1 (1-1000 nM), the indicated compound (1-1000 nM), 10 nM PMA with different concentrations of bryostatin 1 (1-1000 nM) or 10 nM PMA with different concentrations of indicated compound (1-1000 nM) for 72 hours. The number of attached cells and total cells were counted and the attached cells were graphed as percent of total cells. The bars and error bars represent the average and the standard error of the mean of at least three independent experiments.

Row | SMILES | Time course of cFos induction in LNCaP cells [1] | Maximal inhibition of K-562 cell growth [2] | CCEC50 [3] | Max signal (% of control) ([4]; HOS cells, LTR-luciferase signal) | Conc (uM) at Max ([4]; HOS cells, concentration at maximal LTR-luciferase signal) | EC50 ([4]; Human immunodeficiency virus 1, HOS) | Block of PMA-induced attachment of U937 cells [5] | Block of PMA-induced attachment of U937 cells ([5]; listed as bryostatin 1) | Attachment of U937 cells (attached cells as percent of total) [5] | Attachment of U937 cells (attached cells as percent of total) ([5]; listed as bryostatin 1)
1 | CCC/C=C/C=C/C(=O)O[C@H]1/C(=C/C(=O)OC)C[C@H]2C[C@H]([C@@H](C)O)OC(=O)C[C@H](O)C[C@@H]3C[C@H](OC(C)=O)C(C)(C)[C@](O)(C[C@@H]4C/C(=C/C(=O)OC)C[C@H](/C=C/C(C)(C)[C@]1(O)O2)O4)O3 [Bryostatin 1] | largely lost by 5 hrs | 31.8±9.2% | >5 | 157 % of control | 2.51 µM | 2 nM | blocks the effect of the phorbol ester | blocks the effect of the phorbol ester in a dose-dependent manner | has much less effect on either response | much diminished effect
2 | CCCCCCCCCCCCCC(=O)O[C@@H]1[C@@H](C)[C@@]2(O)[C@@H](C=C(CO)C[C@]3(O)C(=O)C(C)=C[C@@H]23)[C@@H]2C(C)(C)[C@]12OC(C)=O [PMA, phorbol 12-myristate 13-acetate] | persisted for 5 hrs, with weak induction still evident at 8 hrs |  |  |  |  |  |  |  | induces attachment | 
